Assay results taken from patent US20120053122A1, “METHOD FOR THE PROPHYLAXIS OR TREATMENT OF FLUSHING” (priority 2009, published 2012).
Like-named read-outs stand apart in the source and are kept apart here. Square brackets hold non-standard residues; d marks the D form. Peptide text beside a SMILES is read from it. dPhe(4-Cl) = N[C@H](Cc1ccc(Cl)cc1)C(=O)O; d2Nal = N[C@H](Cc1ccc2ccccc2c1)C(=O)O; dCit = NC(=O)NCCC[C@@H](N)C(=O)O; d3Pal = N[C@H](Cc1cccnc1)C(=O)O

Assays:
PMP flushing [1] = experiment: Short-term in-hospital response: flush diary (frequency, duration, severity, sweating); type: in vivo, women
Description: (§1) Three women who were referred for treatment of severe PMP flushing were included in the pilot study, after signing an informed consent. All three had frequent and severe flushing, during daytime as well as during the night. Sleep was often disturbed by flushes and sweat attacks, often forcing a change of clothes and/or bed linen. Physical examination in these patients was unremarkable and other causes of flushing were excluded. Thyroid function was normal, 24 hour urinary hydroxy-indol-acetic acid and catecholamines were within the reference range, serum tryptase was normal, and none used any medication known to induce flushing.
(§2) To avoid intermittent and variable interference of external factors as much as possible, and to guarantee a constant ambient temperature all subjects were hospitalized for further study. They remained ambulatory during that period. They were instructed to record the following flush characteristics in a diary: time of onset, duration in minutes, flush severity on a scale of 0-10, and the degree of associated sweat attacks: 0=no sweating; 1=mild sweating, i.e. only moist skin, no visible sweat drops; 2=moderate sweating, i.e. visible sweat drops; 3=severe sweating, i.e. totally wet, change of clothes necessary. Blood samples for measurement of serum LH, FSH, estradiol, SHBG and albumin were taken each day at 08.00 h and 20.00 h.

[2] = tested on: serum LH, FSH, estradiol, SHBG and albumin; experiment: Short-term in-hospital response: serum LH, FSH, estradiol, SHBG and albumin; type: in vivo, women
From the text: as §2, with “h. LH, FSH and estradiol were measured by electrochemiluminescene immunoassays (Roche Diagnostics, Mannheim, Germany). Normal ranges in PMP women: LH>10 U/L, FSH>30 U/L, estradiol<100 nmol/L. SHBG was measured by chemilumiescent enzyme immunoassay (DPC, Los Angeles, Calif., USA, normal range in PMP women: 18-144 nmol/L)).” for “h.”

PMP flushing [3] = experiment: Long-term treatment, outpatient setting: flush recording; type: in vivo, women
From the text: To avoid intermittent and variable interference of external factors as much as possible, and to guarantee a constant ambient temperature all subjects were hospitalized for further study. They remained ambulatory during that period. They were instructed to record the following flush characteristics in a diary: time of onset, duration in minutes, flush severity on a scale of 0-10, and the degree of associated sweat attacks: 0=no sweating; 1=mild sweating, i.e. only moist skin, no visible sweat drops; 2=moderate sweating, i.e. visible sweat drops; 3=severe sweating, i.e. totally wet, change of clothes necessary. Blood samples for measurement of serum LH, FSH, estradiol, SHBG and albumin were taken each day at 08.00 h and 20.00 h. To evaluate whether responsiveness was maintained in the long run, Cetrorelix treatment was studied for a prolonged period in an outpatient setting. Cetrorelix was started after a baseline observation period of 3-6 days. In the first two patients the starting dose was of 250 μg once a day, injected at about 8.30-9.00 h, just after the morning blood sampling. In the third patient the starting dose was 500 μg once a day. Blood was sampled only in the morning, between 8.00 en 9.00 h, every day during the first 4 days, thereafter every 3 days for a brief period, and later on once a week.

serum LH and FSH = experiment: Long-term treatment, outpatient setting: serum LH and FSH; type: in vivo, women
Description: LH, FSH and estradiol were measured by electrochemiluminescene immunoassays (Roche Diagnostics, Mannheim, Germany). Normal ranges in PMP women: LH>10 U/L, FSH>30 U/L, estradiol<100 nmol/L. SHBG was measured by chemilumiescent enzyme immunoassay (DPC, Los Angeles, Calif., USA, normal range in PMP women: 18-144 nmol/L)). To evaluate whether responsiveness was maintained in the long run, Cetrorelix treatment was studied for a prolonged period in an outpatient setting. Cetrorelix was started after a baseline observation period of 3-6 days. In the first two patients the starting dose was of 250 μg once a day, injected at about 8.30-9.00 h, just after the morning blood sampling. In the third patient the starting dose was 500 μg once a day. Blood was sampled only in the morning, between 8.00 en 9.00 h, every day during the first 4 days, thereafter every 3 days for a brief period, and later on once a week.

PMP flushing [4] = tested on: PMP flushing
Description: as §1

PMP flushing [5] = settings: in vivo; cited from earlier work
breast cancer = breast cancer survivors; cited from earlier work
[6] = Patient 1, 250 μg once a day for five days
[7] = Patient 1, 250 μg once a day, within 24 hours
[8] = Patient 2, 250 μg once a day, 4th day of treatment
[9] = Patient 3, 250 μg once a day, after the first 5 days
[10] = Patient 3, 250 μg once a day at 08.30 h
[11] = Patient 1, discontinued after 4 months
[12] = Patient 1, outpatient, 250 μg once a day, after two weeks
[13] = Patient 1, outpatient, 250 μg once a day, if flushes occurred
[14] = Patient 2, outpatient, 250 μg once a day, over the following weeks
[15] = Patient 2, outpatient, 250 μg twice a day after the third month
[16] = Patient 2, outpatient, 250 μg twice a day, eventually
[17] = Patient 1, outpatient, 250 μg once a day
[18] = Patient 3, outpatient, 500 μg once a day at 20.00 h, first 4 weeks

CC(=O)N[C@H](Cc1ccc2ccccc2c1)C(=O)N[C@H](Cc1ccc(Cl)cc1)C(=O)N[C@H](Cc1cccnc1)C(=O)N[C@@H](CO)C(=O)N[C@@H](Cc1ccc(O)cc1)C(=O)N[C@H](CCCNC(N)=O)C(=O)N[C@@H](CC(C)C)C(=O)N[C@@H](CCCNC(=N)N)C(=O)N1CCC[C@H]1C(=O)N[C@H](C)C(N)=O [Cetrorelix] (Ac-[d2Nal][dPhe(4-Cl)][d3Pal]SY[dCit]LRP[dA]-NH2)
Daytime flush duration (PMP flushing [1]; [6]): did not change appreciably | Nighttime flush duration (PMP flushing [1]; [6]): tended to decrease | Flush severity (PMP flushing [1]; Patient 1, 250 μg once a day for five days, in particular during daytime): weak trend to decrease | Decrease in daytime flush frequency (PMP flushing [1]; [7]): 60-70% | Decrease in nighttime flushing (PMP flushing [1]; [7]): 60-70% | Decrease in total flush frequency (PMP flushing [1]; [7]): 60-70% | Time for flush frequency to rise again to pre-treatment levels after discontinuation (PMP flushing [1]; Patient 1, short-term): ≤ 48 h | Daytime flush duration (PMP flushing [1]; Patient 2, 250 μg once a day): tended to decrease slightly | Daytime flush severity (PMP flushing [1]; Patient 2, 250 μg once a day): did not change significantly | Flush sweating (PMP flushing [1]; Patient 2, 250 μg once a day): did not change significantly | Change in daytime flush frequency (PMP flushing [1]; [8]): −80% | Daytime flush frequency (PMP flushing [1]; [8]): 4 flushes per day | Nighttime flushing (PMP flushing [1]; Patient 2, 250 μg once a day, after the first night): completely disappeared | Change in nighttime flushing (PMP flushing [1]; Patient 2, 250 μg once a day, first night of treatment): −80% | Nighttime flushing (PMP flushing [1]; Patient 2, 250 μg once a day, first night of treatment, from 5): 1 | Change in daytime flush frequency (PMP flushing [1]; Patient 2, 250 μg once a day, within one day): −60% | Daytime flush frequency (PMP flushing [1]; Patient 2, 250 μg once a day, within one day, from 20): 8 | Flush frequency after discontinuation (PMP flushing [1]; Patient 2, within the two days after discontinuation): did not reach pre-treatment levels | Change in daytime flushes (PMP flushing [1]; [9]): −25% | Change in total flushes (PMP flushing [1]; [9]): −25% | Nighttime flushing (PMP flushing [1]; [9]): did not change significantly | Nighttime flushing (PMP flushing [1]; Patient 3, 250 μg twice a day): started to decrease | Decrease in total daily flush frequency (PMP flushing [1]; Patient 3, after 250 μg once then twice a day, one day after discontinuation): 80% | Flush frequency after discontinuation (PMP flushing [1]; Patient 3, six days after discontinuation): still markedly lower than before treatment | Time at which FSH reached its nadir ([2]; Patient 1, 250 μg once a day): 3 days | Serum SHBG level [2, 6]: did not change | Serum albumin level [2, 6]: did not change | Serum estradiol level [2, 6]: did not change | Serum FSH ([2]; Patient 1, 250 μg once a day, in 3 days, from about 90): ~60 U/L | Serum LH level ([2]; Patient 1, 250 μg once a day, within 12 hours, from about 22): ~10 U/L | Time for serum FSH to rise again to pre-treatment levels after discontinuation ([2]; Patient 1, short-term): ≤ 48 h | Time for serum LH to rise again to pre-treatment levels after discontinuation ([2]; Patient 1, short-term): ≤ 48 h | Serum FSH level change ([2]; Patient 2, 250 μg once a day): gradual decrease | Time at which FSH reached its nadir ([2]; Patient 2, 250 μg once a day): 5 days | Serum LH change ([2]; Patient 2, 250 μg once a day, within 12 hours): abrupt decrease | Time for LH to return to pre-treatment levels after discontinuation ([2]; Patient 2, short-term): ≤ 48 h | FSH after discontinuation ([2]; Patient 2, short-term, compared with LH): rose somewhat more slowly | FSH change [2, 10]: more gradually | LH change [2, 10]: decreased abruptly | FSH after discontinuation of treatment ([2]; Patient 3, short-term): rose rapidly | LH after discontinuation of treatment ([2]; Patient 3, short-term): rose rapidly | Time after discontinuation at which flush frequency started to rise (PMP flushing [3]; [11]): 6 weeks | Daytime flush frequency (PMP flushing [3]; [12]): close to zero | Nighttime flush frequency (PMP flushing [3]; [12]): close to zero | Flush severity (scale of 0-10) (PMP flushing [3]; Patient 1, outpatient, 250 μg once a day, from about 8, day as well as night): ~4 | Degree of perspiration (PMP flushing [3]; [13]): unchanged | Flush duration (PMP flushing [3]; [13]): unchanged | Daytime flush duration (PMP flushing [3]; [14]): gradually decreased | Daytime flush perspiration (PMP flushing [3]; [14]): gradually decreased | Daytime flush severity (PMP flushing [3]; [14]): gradually decreased | Daytime flushing, level at which it levelled off (PMP flushing [3]; Patient 2, outpatient, 250 μg once a day, up to third month): 10 flushes/day | Daytime flush frequency (PMP flushing [3]; Patient 2, outpatient, 250 μg once a day, within the first week, from about 18): ~8 flushes/day | Nighttime flushing (PMP flushing [3]; Patient 2, outpatient, 250 μg once a day, within two days): disappeared completely | Flushing (PMP flushing [3]; [15]): further decreased | Total daily flushing (PMP flushing [3]; [16]): 6 flushes/day | Total decrease in total daily flushing (PMP flushing [3]; [16]): about 75% | Decline of flush frequency (PMP flushing [3]; Patient 3, outpatient, 500 μg once a day, P<0.007): 79.3% | Flush frequency (mean±standard error of the mean) (PMP flushing [3]; Patient 3, outpatient, 500 μg once a day, from 9.67±1.12, P<0.007): 2.00±0.44 | Time for FSH levels to rise to pretreatment levels after discontinuation (serum LH and FSH; [11]): ≤ 3 days | Time for LH levels to rise to pretreatment levels after discontinuation (serum LH and FSH; [11]): ≤ 3 days | Serum FSH (serum LH and FSH; [17]): decreased to levels similar to those observed during the in-hospital setting | Serum LH (serum LH and FSH; [17]): decreased to levels similar to those observed during the in-hospital setting | FSH (serum LH and FSH; Patient 2, outpatient, 250 μg once a day, stabilized level): around 15 U/L | Serum LH (serum LH and FSH; Patient 2, outpatient, 250 μg once a day, within a week): decreased to premenopausal levels | Serum FSH level (serum LH and FSH; [15]): further decreased | Serum LH level (serum LH and FSH; [15]): further decreased | Serum FSH nadir (serum LH and FSH; [18]): 25 U/L | Serum LH nadir (serum LH and FSH; [18]): 8 U/L

Clc1cccc(Cl)c1N=C1NCCN1 [Clonidine]
Effect on flushing (PMP flushing [4]; Patient 1, up to 75 μg twice a day): no beneficial effect | Effect on flushing (PMP flushing [4]; Patient 2, 50 μg twice a day): no beneficial effect | Effect on flushing (PMP flushing [4]; Patient 3, 75 μg twice a day): no effect whatsoever | Benefit on flushing (PMP flushing [4]; all three patients, previous use): without experiencing a significant benefit

NCC1(CC(=O)O)CCCCC1 [gabapentin]
Effectiveness against PMP flushing relative to placebo treatment (PMP flushing [5]): about twice as effective as placebo treatment

Fc1ccc([C@@H]2CCNC[C@H]2COc2ccc3c(c2)OCO3)cc1 [paroxetine]
Effectiveness against PMP flushing relative to placebo treatment (PMP flushing [5]): about twice as effective as placebo treatment

COc1ccc(C(CN(C)C)C2(O)CCCCC2)cc1 (stereo not drawn) [venlafaxine]
Effectiveness against PMP flushing relative to placebo treatment (PMP flushing [5]): about twice as effective as placebo treatment

estrogen
Effectiveness against PMP flushing relative to placebo treatment (PMP flushing [5]): four times as effective | Reduction of PMP flush frequency (PMP flushing [5]): 80-90% | Increased risk of a new primary or a breast cancer recurrence (breast cancer): three-fold
